Calls of active or inactive are those of the source. The rule behind the calls is not given here.
How the values were obtained:
[1] = tested on: HCT-116; assay: Antiproliferative activity against human HCT-116 cells incubated for 72 hrs by MTT assay; type: functional, cell-based; settings: HCT-116, 72 h
[2] = tested on: MDA-MB-231; assay: Antiproliferative activity against human MDA-MB-231 cells incubated for 72 hrs by MTT assay; type: functional, cell-based; settings: MDA-MB-231, 72 h
[3] = tested on: BT-549; assay: Antiproliferative activity against human BT-549 cells incubated for 72 hrs by MTT assay; type: functional, cell-based; settings: BT-549, 72 h
[4] = tested on: A549; assay: Antiproliferative activity against human A549 cells incubated for 72 hrs by MTT assay; type: functional, cell-based; settings: A549, 72 h
[5] = target: Bromodomain-containing protein 4 (Homo sapiens, UniProt O60885); assay: Inhibition of BRD4 BD1 (unknown origin) incubated for 15 mins by TR-FRET method
[6] = Binding affinity to recombinant PRC2 complex (unknown origin) incubated for 3 hrs in presence of SAM; design: species or system Homo sapiens
[7] = tested on: HCT-116; assay: Synergistic antiproliferative activity against human HCT-116 cells at JQ1 and compound 1:1 ratio incubated for 72 hrs by MTT assay; type: functional, cell-based; settings: HCT-116, 72 h
[8] = tested on: MDA-MB-231; assay: Synergistic antiproliferative activity against human MDA-MB-231 cells at JQ1 and compound 1:1 ratio incubated for 72 hrs by MTT assay; type: functional, cell-based; settings: MDA-MB-231, 72 h
[9] = tested on: BT-549; assay: Synergistic antiproliferative activity against human BT-549 cells at JQ1 and compound 1:1 ratio incubated for 72 hrs by MTT assay; type: functional, cell-based; settings: BT-549, 72 h
[10] = tested on: A549; assay: Synergistic antiproliferative activity against human A549 cells at JQ1 and compound 1:1 ratio incubated for 72 hrs by MTT assay; type: functional, cell-based; settings: A549, 72 h
[11] = target: T1, Histone-lysine N-methyltransferase EZH2 (Homo sapiens, UniProt Q15910); assay: Inhibition of EZH2 in human HCT-116 cells assessed as decrease in H3K27ac level at 2 to 8 uM incubated for 48 hrs by Western blotting analysis; type: cell-based; settings: dose 2-8 µM
[12] = target: T1, Histone-lysine N-methyltransferase EZH2; assay: Inhibition of EZH2 in human A549 cells assessed as decrease in H3K27ac level at 2 to 8 uM incubated for 48 hrs by Western blotting analysis; type: cell-based; settings: dose 2-8 µM
[13] = target: T1, Histone-lysine N-methyltransferase EZH2; assay: Inhibition of EZH2 in human MDA-MB-231 cells assessed as decrease in H3K27ac level at 2 to 8 uM incubated for 48 hrs by Western blotting analysis; type: cell-based; settings: dose 2-8 µM

T1 sequence (Q15910 whole entry, looked up): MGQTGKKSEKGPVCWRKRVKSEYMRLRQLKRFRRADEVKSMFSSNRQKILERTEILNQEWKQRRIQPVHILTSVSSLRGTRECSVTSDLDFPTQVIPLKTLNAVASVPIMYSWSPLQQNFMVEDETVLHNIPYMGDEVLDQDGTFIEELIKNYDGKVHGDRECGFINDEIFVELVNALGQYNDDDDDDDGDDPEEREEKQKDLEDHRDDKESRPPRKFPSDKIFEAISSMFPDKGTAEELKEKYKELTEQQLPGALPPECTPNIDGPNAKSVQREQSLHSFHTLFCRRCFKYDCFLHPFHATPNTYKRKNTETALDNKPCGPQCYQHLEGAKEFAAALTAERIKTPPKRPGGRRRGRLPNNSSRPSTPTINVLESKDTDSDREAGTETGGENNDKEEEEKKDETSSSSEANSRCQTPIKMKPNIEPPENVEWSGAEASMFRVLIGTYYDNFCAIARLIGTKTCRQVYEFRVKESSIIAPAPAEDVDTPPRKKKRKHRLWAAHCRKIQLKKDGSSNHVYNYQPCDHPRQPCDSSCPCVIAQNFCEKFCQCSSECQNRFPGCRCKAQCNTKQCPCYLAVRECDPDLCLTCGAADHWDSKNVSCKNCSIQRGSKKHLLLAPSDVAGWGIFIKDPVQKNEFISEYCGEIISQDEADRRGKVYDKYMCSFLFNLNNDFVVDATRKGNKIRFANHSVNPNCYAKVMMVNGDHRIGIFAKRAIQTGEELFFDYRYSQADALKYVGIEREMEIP

Row | SMILES | IC50 [1] [µM] | IC50 [2] [µM] | IC50 [3] [µM] | IC50 [4] [µM] | IC50 [5] [nM] | Kd [6] [nM] | IC50 [7] [nM] | IC50 [8] [nM] | IC50 [9] [µM] | IC50 [10] [µM] | inhibition [11] | inhibition [12] | inhibition [13]
1 | Cc1cc(C)c(CNC(=O)c2cc(N3CCC4(CCN(C(=O)C[C@@H]5N=C(c6ccc(Cl)cc6)c6c(sc(C)c6C)-n6c(C)nnc65)C4)CC3)cc3c2cnn3C(C)C)c(=O)[nH]1 | 2.23 | 2.87 | 3.64 | 17.3 |  |  |  |  |  |  |  |  | 
2 | Cc1cc(C)c(CNC(=O)c2cc(NCCCCNC(=O)C[C@@H]3N=C(c4ccc(Cl)cc4)c4c(sc(C)c4C)-n4c(C)nnc43)cc3c2cnn3C(C)C)c(=O)[nH]1 | 10.2 | 13.5 | 9.57 | > 20 | 216 |  |  |  |  |  |  |  | 
3 | Cc1cc(C)c(CNC(=O)c2cc(-c3ccc(N4CCN(C(=O)C[C@@H]5N=C(c6ccc(Cl)cc6)c6c(sc(C)c6C)-n6c(C)nnc65)CC4)nc3)cc3c2cnn3C)c(=O)[nH]1 | > 20 | 11.8 | 5.13 | > 20 |  |  |  |  |  |  |  |  | 
4 | Cc1cc(C)c(CNC(=O)c2cc(NCCCNC(=O)C[C@@H]3N=C(c4ccc(Cl)cc4)c4c(sc(C)c4C)-n4c(C)nnc43)cc3c2cnn3C(C)C)c(=O)[nH]1 | > 20 | 15.4 | 11.5 | > 20 | 206 |  |  |  |  |  |  |  | 
5 | Cc1cc(C)c(CNC(=O)c2cc(-c3ccc(N4CCN(C(=O)C[C@@H]5N=C(c6ccc(Cl)cc6)c6c(sc(C)c6C)-n6c(C)nnc65)CC4)nc3)cc3c2cnn3C(C)C)c(=O)[nH]1 | 2.3 | > 20 | 3.4 | > 20 |  |  |  |  |  |  |  |  | 
6 | Cc1cc(C)c(CNC(=O)c2cc(-c3ccc(NC(=O)CCNC(=O)C[C@@H]4N=C(c5ccc(Cl)cc5)c5c(sc(C)c5C)-n5c(C)nnc54)cc3)cc3c2cnn3C(C)C)c(=O)[nH]1 | > 20 | 6.16 | > 20 | > 20 | 124 | 464 |  |  |  |  |  |  | 
7 | Cc1cc(C)c(CNC(=O)c2cc(N3CCN(C(=O)C[C@@H]4N=C(c5ccc(Cl)cc5)c5c(sc(C)c5C)-n5c(C)nnc54)CC3)cc3c2cnn3C(C)C)c(=O)[nH]1 | > 20 | 10.9 | 3.87 | > 20 |  |  |  |  |  |  |  |  | 
8 | CCCc1cc(C)[nH]c(=O)c1CNC(=O)c1cc(-c2ccc(N3CCN(C(=O)C[C@@H]4N=C(c5ccc(Cl)cc5)c5c(sc(C)c5C)-n5c(C)nnc54)CC3)nc2)cc2c1cnn2C(C)C | > 20 | > 20 | > 20 | > 20 |  |  |  |  |  |  |  |  | 
9 | CC[C@@H](C)n1cc(C)c2c(C(=O)NCc3c(C)cc(C)[nH]c3=O)cc(-c3ccc(N4CCNCC4)nc3)cc21 | 12.9 | 11.7 | 9.23 | 18.6 |  | 89.1 | 1760 | 2600 | 2.05 | 4.34 | inactive | inactive | inactive
10 | CCn1ncc2c(C(=O)NCc3c(C)cc(C)[nH]c3=O)cc(-c3ccc(N4CCN(C(=O)C[C@@H]5N=C(c6ccc(Cl)cc6)c6c(sc(C)c6C)-n6c(C)nnc65)CC4)nc3)cc21 | 6.68 | > 20 | 3.51 | > 20 |  |  |  |  |  |  |  |  | 
11 | CCC(C)n1ncc2c(C(=O)NCc3c(C)cc(C)[nH]c3=O)cc(-c3ccc(N4CCN(C(=O)C[C@@H]5N=C(c6ccc(Cl)cc6)c6c(sc(C)c6C)-n6c(C)nnc65)CC4)nc3)cc21 (some centres undefined) | > 20 | > 20 | > 20 | > 20 |  |  |  |  |  |  |  |  | 
12 | Cc1cc(C)c(CNC(=O)c2cc(-c3ccc(NC(=O)CCCCNC(=O)C[C@@H]4N=C(c5ccc(Cl)cc5)c5c(sc(C)c5C)-n5c(C)nnc54)cc3)cc3c2cnn3C(C)C)c(=O)[nH]1 | 6.27 | 2.21 | 10.4 | > 20 | 55 | 682 |  |  |  |  |  |  | 
13 | Cc1cc(C)c(CNC(=O)c2cc(-c3ccc(N4CCN(C(=O)C[C@@H]5N=C(c6ccc(Cl)cc6)c6c(sc(C)c6C)-n6c(C)nnc65)CC4)cc3)cc3c2cnn3C(C)C)c(=O)[nH]1 | 17.8 | > 20 | > 20 | > 20 |  |  |  |  |  |  |  |  | 
14 | Cc1cc(C)c(CNC(=O)c2cc(NC3CCN(C(=O)C[C@@H]4N=C(c5ccc(Cl)cc5)c5c(sc(C)c5C)-n5c(C)nnc54)CC3)cc3c2cnn3C(C)C)c(=O)[nH]1 | 4.28 | 8.09 | 3.91 | > 20 |  |  |  |  |  |  |  |  | 
15 | Cc1cc(C)c(CNC(=O)c2cc(-c3ccc(NC(=O)C[C@@H]4N=C(c5ccc(Cl)cc5)c5c(sc(C)c5C)-n5c(C)nnc54)cc3)cc3c2cnn3C(C)C)c(=O)[nH]1 | > 20 | > 20 | > 20 | > 20 | > 20000 |  |  |  |  |  |  |  | 
16 | Cc1cc(C)c(CNC(=O)c2cc(-c3ccc(NC(=O)CNC(=O)C[C@@H]4N=C(c5ccc(Cl)cc5)c5c(sc(C)c5C)-n5c(C)nnc54)cc3)cc3c2cnn3C(C)C)c(=O)[nH]1 | 2.9 | 1.24 | 10.8 | > 20 | 138 |  |  |  |  |  |  |  | 
17 | Cc1cc(C)c(CNC(=O)c2cc(-c3ccc(CNC(=O)C[C@@H]4N=C(c5ccc(Cl)cc5)c5c(sc(C)c5C)-n5c(C)nnc54)cc3)cc3c2cnn3C(C)C)c(=O)[nH]1 | 11.5 | 3.14 | 12.2 | > 20 | 259 |  |  |  |  |  |  |  | 
18 | Cc1cc(C)c(CNC(=O)c2cc(-c3ccc(N4CCN(C(C)C)CC4)nc3)cc3c2cnn3C(C)C)c(=O)[nH]1 | 16.9 | 11.7 | 15.1 | 16.1 |  |  | 920 | 1100 | 4.73 | 7.48 |  |  | 
19 | Cc1cc(C)c(CNC(=O)c2cc(-c3ccc(NC(=O)CCCNC(=O)C[C@@H]4N=C(c5ccc(Cl)cc5)c5c(sc(C)c5C)-n5c(C)nnc54)cc3)cc3c2cnn3C(C)C)c(=O)[nH]1 | > 20 | 7.54 | > 20 | > 20 | 137 | 376 |  |  |  |  |  |  | 
20 | Cc1cc(C)c(CNC(=O)c2cc(NCCCCCCNC(=O)C[C@@H]3N=C(c4ccc(Cl)cc4)c4c(sc(C)c4C)-n4c(C)nnc43)cc3c2cnn3C(C)C)c(=O)[nH]1 | 1.9 | 3.23 | 4.99 | 9.2 | 138 | 190 |  |  |  |  |  |  | 
21 | Cc1sc2c(c1C)C(c1ccc(Cl)cc1)=N[C@@H](CC(=O)OC(C)(C)C)c1nnc(C)n1-2 | 3.07 | 6.17 | 3.89 | 18.3 |  |  |  |  |  |  |  |  | 
22 | Cc1cc(C)c(CNC(=O)c2cc(NCC3CCN(C(=O)C[C@@H]4N=C(c5ccc(Cl)cc5)c5c(sc(C)c5C)-n5c(C)nnc54)CC3)cc3c2cnn3C(C)C)c(=O)[nH]1 | 2.18 | 3.11 | 2.12 | 4.58 |  |  |  |  |  |  |  |  | 
23 | Cc1cc(C)c(CNC(=O)c2cc(N3CCC(CNC(=O)C[C@@H]4N=C(c5ccc(Cl)cc5)c5c(sc(C)c5C)-n5c(C)nnc54)CC3)cc3c2cnn3C(C)C)c(=O)[nH]1 | 5.61 | 2.07 | 3.2 | 8.93 | 353 | 133 |  |  |  |  |  |  | 
